Values joined by “and” are separate entries in the source; they are usually repeats but may differ in a detail not shown here. Identical values can stand only once. Like-named read-outs stand apart in the source and are kept apart here.
Assays:
[1] = Pharmacokinetic properties of the components of the Combination (Table 6); design: species or system human; conditions: in vivo
[2] = test system: HIV-1 with NNRTI substitutions; assay: Cross-resistance of rilpivirine, NNRTI substitutions; format: cell-based
[3] = in vivo
Source text: The observed hepatocellular findings in mice may be rodent specific.

[4] = Lactating rats, exposure of pups through milk; format: in vivo, rat; conditions: administered to lactating rats
Source text: The Centers for Disease Control and Prevention recommends that HIV-1-infected mothers in the United States not breastfeed their infants to avoid risking postnatal transmission of HIV-1 infection. It is not known if the components of the Combination are present in human breast milk, affect human milk production, or have effects on the breastfed infant. […] Animal Data: Cabotegravir: […] Rilpivirine: […]

[5] = test system: HIV-1111B; assay: Antiviral activity in an acutely infected T-cell line; format: cell-based, HIV-1; conditions: Human immunodeficiency virus 1, read-out: median EC50
[6] = Mass balance studies, single-dose oral [14C] drug; format: in vivo, human; conditions: single-dose oral [14C] drug
[7] = Multiple-dose pharmacokinetics after monthly IM injections, population PK post-hoc estimates FLAIR and ATLAS; format: in vivo, human; conditions: 600-mg monthly IM injection
[8] = test system: group O primary isolates; assay: Antiviral activity against group O primary isolates; format: cell-based, HIV-1; conditions: Human immunodeficiency virus 1, read-out: EC50 values
[9] = cited from earlier work
[10] = test system: HIV-1; assay: Antiviral activity in combination with other antivirals, cell culture; format: cell-based
[11] = Binding to human plasma proteins; format: in vitro ADME; conditions: read-out: % Bound to human plasma proteins (converted)
[12] = QT crossover trial of oral rilpivirine in healthy adults; format: in vivo, human
Source text: The maximum mean time-matched (95% upper confidence bound) differences in QTcF interval from placebo after baseline correction was 2.0 (5.0) msec (i.e., below the threshold of clinical concern).

[13] = test system: HIV-1 group M (subtypes A, B, C, D, F, G, and H) primary isolates; assay: Antiviral activity against group M primary isolates; format: cell-based; conditions: Human immunodeficiency virus 1, read-out: EC50 values
[14] = Phase 3 clinical trials of oral rilpivirine (rash); format: in vivo, human
Source text: According to another aspect of the main embodiment, precautions are taken prior to and during treatment with the Combination. Severe skin and hypersensitivity reactions have been reported during postmarketing experience with oral rilpivirine-containing regimens including cases of Drug Reaction with Eosinophilia and Systemic Symptoms (DRESS). While some skin reactions were accompanied by constitutional symptoms such as fever, other skin reactions were associated with organ dysfunctions, including elevations in hepatic serum biochemistries.

[15] = Genotoxicity: bacterial reverse mutation assay, mouse lymphoma assay, in vivo rodent micronucleus assay
[16] = Pharmacokinetics in specific populations (renal, hepatic impairment, UGT1A1 genotype); format: in vivo, human; conditions: for exposure higher than matched controls: n=8
Source text: No dosage adjustment is necessary for patients with mild to severe renal impairment (not on dialysis).
No dosage adjustment is necessary for patients with mild to moderate hepatic impairment (Child-Pugh Score A or B).
No dose adjustment is required in subjects with UGT1A1 polymorphisms.

[17] = Fertility studies in rats; format: in vivo, rat; conditions: up to 400 mg/kg/day, dose with maternal toxicity
[18] = test system: human cellular DNA polymerases α, β, and γ; assay: Inhibition of human cellular DNA polymerases; format: biochemical

## Cc1cc(/C=C/C#N)cc(C)c1Nc1ccnc(Nc2ccc(C#N)cc2)n1 [Rilpivirine, 4-[[4-[[4-[(E)-2-cyanoethenyl]-2,6-dimethylphenyl]amino]-2-pyrimidinyl]amino]benzonitrile]
[1]; human, im, intramuscular injection, read-out: Tmax, median (converted)
  Tmax: 72 to 96 h
[1]; human, im, intramuscular injection, read-out: t1/2 (absorption rate limited), mean
  half-life: 91 to 196 days
[1]
  Major route of elimination: Metabolism
  Metabolic pathways: CYP3A
[2]
  susceptibility with K103N substitution by itself: did not show reduced susceptibility
[3]; mouse
  carcinogenicity: positive for hepatocellular neoplasms
[3]; rat
  carcinogenicity: not carcinogenic
[4]
  presence in milk: present in milk
[5]
  EC50: 0.73 nM and 0.00027 µg/mL
[6]
  % of dose excreted as total 14C in feces: 85%
  % of dose excreted as total 14C in urine: 6%
  % of dose excreted as unchanged drug in feces: (26) %
  % of dose excreted as unchanged drug in urine: (<1) %
[7]
  Ctrough, geometric mean: 82.2 ng/mL
[7]; human, in vivo, read-out: AUCtau, geometric mean
  AUC: 65600 ng·h/mL
[7]; human, in vivo, read-out: Cmax, geometric mean
  Cmax: 116 ng/mL
[8]
  EC50: 2.88 nM to 8.45 nM and 0.00106 µg/mL to 0.0031 µg/mL
[9]; first trimester exposure to rilpivirine-containing regimens
  prevalence of birth defects in live births: 0.9%
[9]; second/third trimester exposure to rilpivirine-containing regimens
  prevalence of birth defects in live births: 1.24%
[10]
  antiviral activity combined with listed NNRTIs, NRTIs, protease inhibitors, enfuvirtide, maraviroc, or raltegravir: not antagonistic
[11]
  fraction unbound: 0.003
[12]; oral 25 mg once daily, steady state
  maximum mean time-matched (95% upper confidence bound) difference in QTcF interval from placebo after baseline correction: 2.0 (5.0) msec
[12]; oral 75 mg once daily
  maximum mean time-matched (95% upper confidence bound) difference in QTcF interval from placebo after baseline correction: 10.7 (15.3) msec
[12]; oral 300 mg once daily
  maximum mean time-matched (95% upper confidence bound) difference in QTcF interval from placebo after baseline correction: 23.3 (28.4) msec
[13]
  EC50: 0.07 nM to 1.01 nM and 3e-05 µg/mL to 0.00037 µg/mL
[14]
  Grade 4 rash: no Grade 4 rash was reported
  treatment-related rashes with at least Grade 2 severity, subjects: 3%
[15]
  genotoxicity: not genotoxic
[16]; mild hepatic impairment (Child-Pugh Score A)
  exposure higher than matched controls: 47%
[16]; moderate hepatic impairment (Child-Pugh Score B)
  exposure higher than matched controls: 5%
[16]; oral rilpivirine, population pharmacokinetic analyses
  effect of mild renal impairment on exposure: no clinically relevant effect
[17]
  effects on mating or fertility: no effects on mating or fertility
[18]
  inhibition of human cellular DNA polymerases α, β, and γ: does not inhibit

Reference: patent US12636285B2 (ViiV Healthcare Company, priority 2019, dated 2026)
